Measured values published in patent US4311698A, “Aminoacid derivatives of cephalosporin compounds” (priority 1980, dated 1982).
Values after ≈ are worked out from the molar mass of the structure shown.

What was measured:
Assay type in all cases: cell-based
Prot Vulg. = experiment: In vitro minimal inhibitory concentration, Prot Vulg.
Serr. Mar. IMM 16 = experiment: In vitro minimal inhibitory concentration, Serr. Mar. IMM 16
Staph S 18713 = experiment: In vitro minimal inhibitory concentration, Staph S 18713
Strep. fec. MGH 2 = experiment: In vitro minimal inhibitory concentration, Strep. fec. MGH 2
Pseudomonas BRK 12-4-4 = experiment: In vitro minimal inhibitory concentration, Pseudomonas BRK 12-4-4; conditions: BRK1244
Pseudomonas #28 = experiment: In vitro minimal inhibitory concentration, Pseudomonas #28; conditions: Pseudomonas #28; in vitro; read-out: Minimal Inhibitory Concentration
Staph UC76 = experiment: In vitro minimal inhibitory concentration, Staph UC76
E. Coli. Brig = experiment: In vitro minimal inhibitory concentration, E. Coli. Brig; conditions: Escherichia coli
Klebs. Pneum. MGH 2 = experiment: In vitro minimal inhibitory concentration, Klebs. Pneum. MGH 2
E. Coli. Vogel = experiment: In vitro minimal inhibitory concentration, E. Coli. Vogel; conditions: Escherichia coli
Entero Cloac. IM 11 = experiment: In vitro minimal inhibitory concentration, Entero Cloac. IM 11
Pseudomonas UI 18 = experiment: In vitro minimal inhibitory concentration, Pseudomonas UI 18; conditions: UI18

| SMILES | MIC (Prot Vulg.) [µg/mL] | MIC (Serr. Mar. IMM 16) [µg/mL] | MIC (Staph S 18713) [µg/mL] | MIC (Strep. fec. MGH 2) [µg/mL] | MIC (Pseudomonas BRK 12-4-4) [µg/mL] | MIC (Pseudomonas #28) [µg/mL] | MIC (Staph UC76) [µg/mL] | MIC (E. Coli. Brig) [µg/mL] | MIC (Klebs. Pneum. MGH 2) [µg/mL] | MIC (E. Coli. Vogel) [µg/mL] | MIC (Entero Cloac. IM 11) [µg/mL] | MIC (Pseudomonas UI 18) [µg/mL] |
| --- | --- | --- | --- | --- | --- | --- | --- | --- | --- | --- | --- | --- |
| CC(=O)N[C@H](C)C(=O)Nc1ccc(-c2ccc(C(=O)N[C@@H](C(=O)NC3C(=O)N4C(C(=O)O)=C(CSc5nnnn5C)CSC34)c3ccc(O)cc3)c(=O)[nH]2)cc1 (stereo partly drawn) [Example 25, N-[6-[4(N-Acetyl-D-alanylamino)phenyl]-1,2-dihydro-2-oxonicotinyl]-7-[D-2-amino-2-(4-hydroxyphenyl)acetamido]-3-[[(1-methyl-1H-tetrazol-5-yl)thio]methyl]-3-cephem-4-carboxylic acid] | 6.3 (≈ 7.85 µM) | 12.5 (≈ 15.6 µM) | 6.3 (≈ 7.85 µM) | 12.5 (≈ 15.6 µM) | 3.1 (≈ 3.86 µM) | 3.1 (≈ 3.86 µM) | 1.6 (≈ 1.99 µM) | 3.1 (≈ 3.86 µM) | 1.6 (≈ 1.99 µM) | 0.8 (≈ 0.996 µM) | 1.6 (≈ 1.99 µM) | 3.1 (≈ 3.86 µM) |
| CC(=O)N[C@@H](C)C(=O)Nc1ccc(-c2ccc(C(=O)N[C@@H](C(=O)NC3C(=O)N4C(C(=O)O)=C(CSc5nnc(C)s5)CSC34)c3ccccc3)c(=O)[nH]2)cc1 (stereo partly drawn) [Example 15, N-[6-[4-(N-Acetyl-L-alanylamino)phenyl]-1,2-dihydro-2-oxonicotinyl]-7-[D-2-amino-2-phenylacetamido]-3-[([5-methyl-1,3,4-thiadiazolyl-2-yl]thio)methyl]-3-cephem-4-carboxylic acid] | 12.5 (≈ 15.6 µM) | 25 (≈ 31.1 µM) | 6.3 (≈ 7.85 µM) | 12.5 (≈ 15.6 µM) | 12.5 (≈ 15.6 µM) | 12.5 (≈ 15.6 µM) | 0.4 (≈ 0.498 µM) | 6.3 (≈ 7.85 µM) | 3.1 (≈ 3.86 µM) | 1.6 (≈ 1.99 µM) | 12.5 (≈ 15.6 µM) | 12.5 (≈ 15.6 µM) |
